Test results reported in publication PMC11899342, “Novel Triazeneindole Antibiotics: Synthesis and Hit-to-Lead Optimization” (International Journal of Molecular Sciences, 2025).
Converted amounts (≈) assume the structure as drawn. Where two headings read alike, the source gives them in different places. Values belong to the molecule of their own block, whether it stands above or below them.

Key:
[1] = system: MRSA clinical isolates; assay: Antibiotic susceptibility profile of MRSA clinical isolates (EUCAST breakpoints); assay type: cell-based, Staphylococcus aureus
Source text: (§1) Clinical MRSA isolates with multidrug resistance were obtained from the collection of the Research Institute of Antimicrobial Chemotherapy, Smolensk State Medical Academy.

[2] = system: MRSA clinical isolates; assay: MIC by broth microdilution against multidrug-resistant MRSA clinical isolates; assay type: cell-based, Staphylococcus aureus; settings: Staphylococcus aureus, MRSA, read-out: MIC against 8 MRSA strains
Experimental: as §1
The MICs were determined using a broth microdilution method according to [42]. Briefly, serial dilutions of the tested compounds in 50 µL of Mueller Hinton broth (BD) were prepared in 96-well microplates. The antibiotics vancomycin and linezolid (Sigma-Aldrich, St. Louis, MO, USA) were used as a positive control. Bacterial suspensions of the tested MRSA strains were prepared in the Mueller Hinton broth (BD) with a concentration 1 × 10^6 CFU/mL, and then 50 µL aliquots were added to the prepared microplates. The final concentrations of the antibiotics in the wells were 1, 0.5, 0.25, and 0.125 mg/L, for the tested compounds, and 2 mg/L for vancomycin and linezolid. Negative control (lack of bacterial cells) and growth control (lack of compound) wells were included in all plates. The microplates were incubated at 37 °C for 18 h. The growth was assessed visually after incubation, and the MIC was assumed as the lowest compound concentration at which a noticeable growth of the microorganisms was inhibited (no visible growth). All experiments were conducted in triplicate.

MIC ([2]; Figure 6, MRSA strain 2): 2 µg/mL (≈ 5.93 µM)
MIC ([2]; Figure 6, MRSA strain 7): 2 µg/mL (≈ 5.93 µM)
MIC ([2]; Figure 6, MRSA strain 8): 2 µg/mL (≈ 5.93 µM)
MIC ([2]; Figure 6, MRSA strain 9): 2 µg/mL (≈ 5.93 µM)
MIC ([2]; Figure 6, MRSA strain 13): 2 µg/mL (≈ 5.93 µM)
MIC ([2]; Figure 6, MRSA strain 21): 2 µg/mL (≈ 5.93 µM)
MIC ([2]; Figure 6, MRSA strain 48): 2 µg/mL (≈ 5.93 µM)
MIC ([2]; Figure 6, MRSA strain 50): 2 µg/mL (≈ 5.93 µM)
SMILES: CC(=O)NC[C@H]1CN(c2ccc(N3CCOCC3)c(F)c2)C(=O)O1 [Linezolid, linezolid]
Drug sensibility profile ([1]; MRSA strain 1): S
Drug sensibility profile ([1]; MRSA strain 2): S
Drug sensibility profile ([1]; MRSA strain 3): S
Drug sensibility profile ([1]; MRSA strain 4): S
Drug sensibility profile ([1]; MRSA strain 5): S
Drug sensibility profile ([1]; MRSA strain 6): S
Drug sensibility profile ([1]; MRSA strain 7): S
Drug sensibility profile ([1]; MRSA strain 8): S
Drug sensibility profile ([1]; MRSA strain 9): S
Drug sensibility profile ([1]; MRSA strain 10): S
Drug sensibility profile ([1]; MRSA strain 12): S
Drug sensibility profile ([1]; MRSA strain 13): S
Drug sensibility profile ([1]; MRSA strain 14): S
Drug sensibility profile ([1]; MRSA strain 15): S
Drug sensibility profile ([1]; MRSA strain 16): S
Drug sensibility profile ([1]; MRSA strain 17): S
Drug sensibility profile ([1]; MRSA strain 18): S
Drug sensibility profile ([1]; MRSA strain 21): S
Drug sensibility profile ([1]; MRSA strain 23): S
Drug sensibility profile ([1]; MRSA strain 24): S
Drug sensibility profile ([1]; MRSA strain 25): S
Drug sensibility profile ([1]; MRSA strain 26): S
Drug sensibility profile ([1]; MRSA strain 27): S
Drug sensibility profile ([1]; MRSA strain 28): S
Drug sensibility profile ([1]; MRSA strain 29): S
Drug sensibility profile ([1]; MRSA strain 30): S
Drug sensibility profile ([1]; MRSA strain 31): S
Drug sensibility profile ([1]; MRSA strain 34): S
Drug sensibility profile ([1]; MRSA strain 35): S
Drug sensibility profile ([1]; MRSA strain 36): S
Drug sensibility profile ([1]; MRSA strain 40): S
Drug sensibility profile ([1]; MRSA strain 41): S
Drug sensibility profile ([1]; MRSA strain 42): S
Drug sensibility profile ([1]; MRSA strain 43): S
Drug sensibility profile ([1]; MRSA strain 44): S
Drug sensibility profile ([1]; MRSA strain 45): S
Drug sensibility profile ([1]; MRSA strain 46): S
Drug sensibility profile ([1]; MRSA strain 48): S
Drug sensibility profile ([1]; MRSA strain 49): S
Drug sensibility profile ([1]; MRSA strain 50): S
Drug sensibility profile ([1]; MRSA strain 51): S

SMILES: CNC(C)C1CCC(N)C(OC2C(N)CC(N)C(OC3OCC(C)(O)C(NC)C3O)C2O)O1 (stereo not drawn) [GEN, gentamicin]
Drug sensibility profile ([1]; MRSA strain 1): S
Drug sensibility profile ([1]; MRSA strain 2): R
Drug sensibility profile ([1]; MRSA strain 3): R
Drug sensibility profile ([1]; MRSA strain 4): R
Drug sensibility profile ([1]; MRSA strain 5): R
Drug sensibility profile ([1]; MRSA strain 6): S
Drug sensibility profile ([1]; MRSA strain 7): R
Drug sensibility profile ([1]; MRSA strain 8): R
Drug sensibility profile ([1]; MRSA strain 9): R
Drug sensibility profile ([1]; MRSA strain 10): S
Drug sensibility profile ([1]; MRSA strain 12): S
Drug sensibility profile ([1]; MRSA strain 13): R
Drug sensibility profile ([1]; MRSA strain 14): R
Drug sensibility profile ([1]; MRSA strain 15): S
Drug sensibility profile ([1]; MRSA strain 16): R
Drug sensibility profile ([1]; MRSA strain 17): R
Drug sensibility profile ([1]; MRSA strain 18): R
Drug sensibility profile ([1]; MRSA strain 21): S
Drug sensibility profile ([1]; MRSA strain 23): R
Drug sensibility profile ([1]; MRSA strain 24): R
Drug sensibility profile ([1]; MRSA strain 25): R
Drug sensibility profile ([1]; MRSA strain 26): S S S S S S S
Drug sensibility profile ([1]; MRSA strain 27): R
Drug sensibility profile ([1]; MRSA strain 28): R
Drug sensibility profile ([1]; MRSA strain 29): S
Drug sensibility profile ([1]; MRSA strain 30): S
Drug sensibility profile ([1]; MRSA strain 31): R
Drug sensibility profile ([1]; MRSA strain 34): R
Drug sensibility profile ([1]; MRSA strain 35): R
Drug sensibility profile ([1]; MRSA strain 36): S S S S S S S
Drug sensibility profile ([1]; MRSA strain 40): R
Drug sensibility profile ([1]; MRSA strain 41): R
Drug sensibility profile ([1]; MRSA strain 42): R
Drug sensibility profile ([1]; MRSA strain 43): R
Drug sensibility profile ([1]; MRSA strain 44): R
Drug sensibility profile ([1]; MRSA strain 45): R
Drug sensibility profile ([1]; MRSA strain 46): S
Drug sensibility profile ([1]; MRSA strain 48): R
Drug sensibility profile ([1]; MRSA strain 49): S
Drug sensibility profile ([1]; MRSA strain 50): R
Drug sensibility profile ([1]; MRSA strain 51): R
